The source of these data is patent US10478425B2, “5-phenylazaindole derivative having AMPK-activating activity” (Shionogi & Co., Ltd., priority 2016, dated 2019).

The structures appear in SMILES notation.

In the assay the target is T1, Human AMPK α2β2γ1 (Homo sapiens, UniProt O43741+P54646).
T1 construct: The full length cDNAs of human AMPK β2 (NM_005399.3) and human AMPK α2 (NM_006252.3); The full length cDNAs of human AMPK β2 (NM_005399.3); the full length cDNA of human AMPK γ1 (NM_002733.3) had been inserted into pET28b(+); 6×His (N); made in house; host or cells: Escherichia coli BL21 CodonPlus (DE3)-RIL
Put plainly: Test Example 2: activation of phosphorylated human AMPK α2β2γ1 (mobility-shift kinase assay, FL-Peptide 7). The class given is biochemical. The following applies: for EC150: compound concentration showing 150% relative to the control (100%), human AMPK α2β2γ1 phosphorylated with CaMKK2; for Emax: maximum rate of increase in activity within the measurement range, control = 100%, read-out: Emax. How it is done:
The full length cDNAs of human AMPK β2 (NM_005399.3) and human AMPK α2 (NM_006252.3) were inserted into the MCS1 and MCS2 of the pETDuet-1 vector to prepare a human AMPK β2 and human AMPK α2 (6×His tag at the 5′ terminus) expressing plasmid. The plasmid was cotransfected with an expression plasmid, in which the full length cDNA of human AMPK γ1 (NM_002733.3) had been inserted into pET28b(+), into BL21 CodonPlus (DE3)-RIL to obtain an expression strain. The expression strain was cultured in TB medium, followed by induction with 0.5 mM IPTG, and cultured at 25° C. for 3 hours and then harvested. After ultrasonication, supernatant was collected and applied to Histrap FF column (GE) and RESOUECE Q column (GE) to prepare 12.5 mg of purified sample containing three types of subunit from 1.8 L of broth.
An expression vector, in which the full length cDNA of human CAMKK β (NM_172226.1) had been inserted into pGEX-6P-3, was transfected into BL21 Star (DE3). The expression strain was cultured in TB medium, followed by induction with 0.5 mM IPTG, and cultured at 25° C. for 3 hours and then harvested. After ultrasonication, supernatant was collected and applied to GSTrap FF column (GE) to prepare 14 mg of GST-fused CAMKK β from 720 ml of broth.
Thus, phosphorylation treatment was carried out as pretreatment.
Human AMPK α2β2γ1 in an amount to give a conversion rate of approximately 10% by reaction for 2 hours, and CaMKK2 in an amount capable of sufficiently imparting activity to AMPK for one hour were mixed in a buffer solution consisting of a 50 mM HEPES-NaOH buffer solution (pH 7.0), 100 mM NaCl, 5 mM magnesium chloride, 0.1% bovine serum albumin, 0.2 mM sodium orthovanadate(V), 1 mM ethylene glycol-bis(2-aminoethyl ether)-N,N,N′,N′-tetraacetic acid (EGTA), 5 mM disodium β-glycerophosphate, 1 mM dithiothreitol and 0.2 mM ATP, and the resulting liquid was left to stand at 25° C. for 1 to 1.5 hours to sufficiently phosphorylate AMPK.
After that, to the enzyme liquid, which had been subjected to phosphorylation treatment, a compound dissolved in DMSO was added so as to have a 1% DMSO concentration. The resulting liquid was left to stand for 10 minutes.
To the liquid, a substrate solution consisting of a 50 mM HEPES-NaOH buffer solution (pH 7.0), 100 mM NaCl, 10 mM magnesium chloride, 0.1% bovine serum albumin, 0.2 mM sodium orthovanadate(V), 1 mM ethylene glycol-bis(2-aminoethyl ether)-N,N,N′,N′-tetraacetic acid (EGTA), 5 mM disodium β-glycerophosphate, 2 mM dithiothreitol, 0.4 mM ATP and 3 μM FL-Peptide 7 (manufactured by Caliper Life Sciences, Inc.) was added in equal amount (10 μl in total). The resulting liquid was allowed to react at 25° C. for 2 hours, then 10 μl of 20 mM EDTA was added thereto to stop the reaction.
To detect phosphorylated fluorescent substrates, the reaction mixture was applied to a measuring device, LabChip EZ Reader II manufactured by Caliper Life Science, Inc., for detecting fluorescence by using differences in mobility due to differences in charge. The setting conditions for the device were pressure, −1.5 PSI; upstream voltage, −2250 V; downstream voltage, −400 V; post sample buffer sip time, 40 seconds; final delay, 120 seconds; and peak order, Product First.
A conversion rate was calculated from the peak heights of the obtained substrate and product. The conversion rate when not containing a compound was used as a control, and a concentration dependent curve was made by plotting the rate of increase in activity to the control at each concentration of a compound.

T1 sequence (P54646 whole entry): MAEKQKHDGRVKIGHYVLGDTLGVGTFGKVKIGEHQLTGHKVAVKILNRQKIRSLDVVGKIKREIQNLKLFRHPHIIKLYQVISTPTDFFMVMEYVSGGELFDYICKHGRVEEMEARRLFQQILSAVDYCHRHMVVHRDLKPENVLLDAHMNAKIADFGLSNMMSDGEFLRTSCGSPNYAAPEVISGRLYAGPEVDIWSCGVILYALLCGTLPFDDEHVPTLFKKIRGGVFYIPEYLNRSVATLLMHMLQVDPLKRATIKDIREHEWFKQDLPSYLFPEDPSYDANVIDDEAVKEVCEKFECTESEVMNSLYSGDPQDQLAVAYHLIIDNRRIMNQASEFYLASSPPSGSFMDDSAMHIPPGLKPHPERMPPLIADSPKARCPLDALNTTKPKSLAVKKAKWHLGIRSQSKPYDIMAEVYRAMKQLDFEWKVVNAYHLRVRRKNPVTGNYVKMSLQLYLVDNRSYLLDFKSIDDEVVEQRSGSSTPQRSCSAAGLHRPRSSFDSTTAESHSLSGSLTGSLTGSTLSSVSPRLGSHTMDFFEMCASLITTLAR
T1 sequence (O43741 whole entry): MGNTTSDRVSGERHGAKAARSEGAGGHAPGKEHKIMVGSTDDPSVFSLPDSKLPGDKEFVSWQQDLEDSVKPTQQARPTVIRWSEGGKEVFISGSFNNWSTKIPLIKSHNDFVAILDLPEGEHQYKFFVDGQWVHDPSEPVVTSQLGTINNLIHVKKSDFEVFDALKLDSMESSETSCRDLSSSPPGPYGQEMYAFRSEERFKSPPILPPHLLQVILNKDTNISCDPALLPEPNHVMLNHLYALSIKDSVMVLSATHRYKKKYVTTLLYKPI
T1 sequence (P54619 whole entry partner): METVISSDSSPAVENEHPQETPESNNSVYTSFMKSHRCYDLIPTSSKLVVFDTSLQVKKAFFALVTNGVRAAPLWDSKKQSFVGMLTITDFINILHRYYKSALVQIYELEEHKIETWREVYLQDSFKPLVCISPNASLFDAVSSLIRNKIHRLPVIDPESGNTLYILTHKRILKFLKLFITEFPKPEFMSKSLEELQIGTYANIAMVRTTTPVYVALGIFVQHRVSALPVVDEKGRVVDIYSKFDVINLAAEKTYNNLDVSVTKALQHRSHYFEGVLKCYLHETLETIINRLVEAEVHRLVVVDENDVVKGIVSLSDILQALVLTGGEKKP

Take `CC(=O)N(C)c1ccc(-c2ccc(-c3nc4cc(O[C@@H]5CO[C@H]6[C@@H]5OC[C@H]6O)[nH]c4cc3F)cc2)cc1` [Compound I-1-36]: the EC150 was determined as 1.7 nM and the Emax amounted to 437%.
In the same order, the values of `O=C1CCCN1c1ccc(-c2ccc(-c3nc4cc(O[C@@H]5CO[C@H]6[C@@H]5OC[C@H]6O)[nH]c4cc3F)cc2)cc1` [Compound I-1-37] are 6.5 nM and 405%.
In the same order, the values of `O[C@@H]1CO[C@H]2[C@@H]1OC[C@H]2Oc1cc2nc(-c3ccc(-c4ccc(C5=NCCN5)cc4)cc3)c(F)cc2[nH]1` [Compound I-1-38] are 0.99 nM and 470%.
In the same order, the values of `COC(=O)N[C@H]1CC[C@H](c2ccc(-c3nc4cc(O[C@@H]5CO[C@H]6[C@@H]5OC[C@H]6O)[nH]c4cc3F)cc2)CC1` [Compound I-1-39] are 13 nM and 552%.
`CCC(=O)NC1CC(c2ccc(-c3nc4cc(O[C@@H]5CO[C@H]6[C@@H]5OC[C@H]6O)[nH]c4cc3F)cc2)C1` (stereo partly shown) [Compound I-1-40]: the EC150 is listed as 29 nM and the Emax worked out at 541%.
In the same order, the values of `CC(=O)N[C@H]1CC[C@H](c2ccc(-c3nc4cc(O[C@@H]5CO[C@H]6[C@@H]5OC[C@H]6O)[nH]c4cc3F)cc2)CC1` [Compound I-1-41] are 7.8 nM and 562%.
`O=S1(=Nc2ccc(-c3ccc(-c4nc5cc(O[C@@H]6CO[C@H]7[C@@H]6OC[C@H]7O)[nH]c5cc4F)cc3)cc2)CCOCC1` [Compound I-1-42]: the EC150 is reported as 5.3 nM and the Emax stood at 472%.
In the same order, the values of `COC(=O)N1CC=C(c2ccc(-c3nc4cc(O[C@@H]5CO[C@H]6[C@@H]5OC[C@H]6O)[nH]c4cc3F)cc2)CC1` [Compound I-1-43] are 7 nM and 514%.
On to `CS(=O)(=O)N[C@H]1CC[C@H](c2ccc(-c3nc4cc(O[C@@H]5CO[C@H]6[C@@H]5OC[C@H]6O)[nH]c4cc3F)cc2)CC1` [Compound I-1-45], for which the EC150 came to 19 nM and the Emax stood at 482%.
`CS(C)(=O)=Nc1ccc(-c2ccc(-c3nc4cc(O[C@H]5CCOC5)[nH]c4cc3F)cc2)cc1` [Compound I-1-46]: the EC150 is given as 6.6 nM and the Emax turned out to be 276%.
On to `Cc1cc(-c2ccc(N=S(C)(C)=O)cc2)ccc1-c1nc2cc(O[C@@H]3CO[C@H]4[C@@H]3OC[C@H]4O)[nH]c2cc1F` [Compound I-1-48], for which the EC150 was found to be 2.9 nM and the Emax was determined as 576%.
In the same order, the values of `CNC(=O)OC1CCN(c2ccc(-c3nc4cc(O[C@@H]5CO[C@H]6[C@@H]5OC[C@H]6O)[nH]c4cc3F)cc2)CC1` [Compound I-1-49] are 19 nM and 551%.
In the same order, the values of `CN(C)C(=O)OC1CCN(c2ccc(-c3nc4cc(O[C@@H]5CO[C@H]6[C@@H]5OC[C@H]6O)[nH]c4cc3F)cc2)CC1` [Compound I-1-50] are 23 nM and 539%.
In the same order, the values of `O[C@@H]1CO[C@H]2[C@@H]1OC[C@H]2Oc1cc2nc(-c3ccc(C4=CCN(C5=NCCO5)CC4)cc3)c(F)cc2[nH]1` [Compound I-1-51] are 12 nM and 486%.
For `NC(=O)c1ccc(-c2ccc(-c3nc4cc(O[C@@H]5CO[C@H]6[C@@H]5OC[C@H]6O)[nH]c4cc3F)cc2)cc1F` [Compound I-1-52], the EC150 was 2.2 nM and the Emax was found to be 469%.
In the same order, the values of `CS(=O)(=O)Nc1ccc(-c2ccc(-c3nc4cc(O[C@@H]5CO[C@H]6[C@@H]5OC[C@H]6O)[nH]c4cc3F)cc2)cc1` [Compound I-1-53] are 1.6 nM and 533%.
In the same order, the values of `CNC(=O)c1ccc(-c2ccc(-c3nc4cc(O[C@@H]5CO[C@H]6[C@@H]5OC[C@H]6O)[nH]c4cc3F)cc2)cc1F` [Compound I-1-54] are 3.3 nM and 416%.
In the same order, the values of `CNC(=O)c1ccc(-c2ccc(-c3nc4cc(O[C@@H]5CO[C@H]6[C@@H]5OC[C@H]6O)[nH]c4cc3F)cc2)cc1` [Compound I-1-55] are 0.34 nM and 431%.
Consider `COC(=O)N1CCN(c2ccc(-c3nc4cc(O[C@@H]5CO[C@H]6[C@@H]5OC[C@H]6O)[nH]c4cc3F)cc2)CC1` [Compound I-1-57], for which the EC150 stood at 32 nM and the Emax was found to be 550%.
In the same order, the values of `O=C1NCCN1c1ccc(-c2ccc(-c3nc4cc(O[C@@H]5CO[C@H]6[C@@H]5OC[C@H]6O)[nH]c4cc3F)cc2)cc1` [Compound I-1-58] are 1.3 nM and 494%.
In the same order, the values of `OC1CCN(c2ccc(-c3ccc(-c4nc5cc(O[C@@H]6CO[C@H]7[C@@H]6OC[C@H]7O)[nH]c5cc4F)cc3)cc2)C1` (stereo partly shown) [Compound I-1-59] are 2.9 nM and 470%.
In the case of `O[C@@H]1CO[C@H]2[C@@H]1OC[C@H]2Oc1cc2nc(-c3ccc(-c4ccc(NC5=NCCO5)cc4)cc3)c(F)cc2[nH]1` [Compound I-1-61], the EC150 was found to be 2.3 nM and the Emax stood at 383%.
On to `COCCOC1CCN(c2ccc(-c3nc4cc(O[C@@H]5CO[C@H]6[C@@H]5OC[C@H]6O)[nH]c4cc3F)cc2)C1` (stereo partly shown) [Compound I-1-62], for which the EC150 worked out at 21 nM and the Emax came out at 392%.
In the same order, the values of `O[C@@H]1CO[C@H]2[C@@H]1OC[C@H]2Oc1cc2nc(-c3ccc(-c4ccc(OC5CNC5)cc4)cc3)c(F)cc2[nH]1` [Compound I-1-63] are 3.2 nM and 361%.
In the same order, the values of `CN(C)CCOc1ccc(-c2ccc(-c3nc4cc(O[C@@H]5CO[C@H]6[C@@H]5OC[C@H]6O)[nH]c4cc3F)cc2)cc1` [Compound I-1-68] are 2.5 nM and 360%.
In the same order, the values of `CNCCOc1ccc(-c2ccc(-c3nc4cc(O[C@@H]5CO[C@H]6[C@@H]5OC[C@H]6O)[nH]c4cc3F)cc2)cc1` [Compound I-1-69] are 1.6 nM and 359%.
Turning to `O[C@@H]1CO[C@H]2[C@@H]1OC[C@H]2Oc1cc2nc(-c3ccc(-c4ccc(OC5CNCC5F)cc4)cc3)c(F)cc2[nH]1` (stereo partly shown) [Compound I-1-71], the EC150 was 4.33 nM and the Emax stood at 340%.
In the same order, the values of `OCCOc1ccc(-c2ccc(-c3nc4cc(O[C@@H]5CO[C@H]6[C@@H]5OC[C@H]6O)[nH]c4cc3F)cc2)cc1` [Compound I-1-72] are 3 nM and 353%.
For `COC(=O)NC1CC=C(c2ccc(-c3nc4cc(O[C@@H]5CO[C@H](CO)C5)[nH]c4cc3F)cc2)CC1` (stereo partly shown) [Compound I-2-01], the Emax worked out at 376%.
Same read-out and setting: next, `COCCOc1ccc(-c2ccc(-c3nc4cc(O[C@@H]5CO[C@H](CO)C5)[nH]c4cc3F)cc2)cc1` [Compound I-2-02]: 537%.

The Emax is the size of the effect at its maximum, as opposed to the concentration needed.
